Experimental data published in the supplement of paper PMC10307832.

Assays:
Assay in all cases: relative viability (nuclei count vs DMSO), 5 days (fraction); higher = more cells survive
NCI-H1395 = test system: NCI-H1395
Outline: (§1)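 Medians of duplicate plates are given as relative viability. That measure is the nuclei count in treated wells divided by the count in vehicle wells. Counts were taken on 4× images of lung cancer cell lines in 1536-well plates, 5 days after pin-tool dosing the day after seeding with one drug alone or a fixed anchor-drug dose plus five library-drug doses (not always all listed) in √10 steps.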

NCI-H2347 = test system: NCI-H2347
Outline: as §1

NCI-H2087 = test system: NCI-H2087
Outline: as §1

NCI-H1666 = test system: NCI-H1666
Outline: as §1

NCI-H838 = test system: NCI-H838
Outline: as §1

EMC-BAC-2 = test system: EMC-BAC-2
Outline: as §1

NCI-H1993 = test system: NCI-H1993
Outline: as §1

HARA = test system: HARA
Outline: as §1

NCI-H647 = test system: NCI-H647
Outline: as §1

NCI-H3122 = test system: NCI-H3122
Outline: as §1

NCI-H2009 = test system: NCI-H2009
Outline: as §1

NCI-H727 = test system: NCI-H727
Outline: as §1

LCLC-103H = test system: LCLC-103H
Outline: as §1

HCC-44 = test system: HCC-44
Outline: as §1

LOU-NH91 = test system: LOU-NH91
Outline: as §1

NCI-H596 = test system: NCI-H596
Outline: as §1

NCI-H23 = test system: NCI-H23
Outline: as §1

NCI-H2023 = test system: NCI-H2023
Outline: as §1

BEN = test system: BEN
Outline: as §1

NCI-H2126 = test system: NCI-H2126
Outline: as §1

201T = test system: 201T
Outline: as §1

NCI-H650 = test system: NCI-H650
Outline: as §1

NCI-H441 = test system: NCI-H441
Outline: as §1

NCI-H522 = test system: NCI-H522
Outline: as §1

C[C@@H]1CN(CC(=O)Nc2ccc3c(c2)Cc2cccc(-c4cc(=O)cc(N5CCOCC5)o4)c2S3)C[C@H](C)O1 + N=C(N)NC(=N)NCCc1ccccc1 [Phenformin] (partner 250 µM)
relative viability (NCI-H1395; first compound 0.04 µM): 0.495
relative viability (NCI-H1395; first compound 0.1265 µM): 0.456
relative viability (NCI-H1395; first compound 0.4 µM): 0.417
relative viability (NCI-H1395; first compound 4 µM): 0.405
relative viability (NCI-H2347; first compound 0.04 µM): 0.412
relative viability (NCI-H2347; first compound 0.1265 µM): 0.547
relative viability (NCI-H2347; first compound 0.4 µM): 0.368
relative viability (NCI-H2347; first compound 4 µM): 0.449
relative viability (NCI-H2087; first compound 0.04 µM): 0.458
relative viability (NCI-H2087; first compound 0.1265 µM): 0.451
relative viability (NCI-H2087; first compound 0.4 µM): 0.444
relative viability (NCI-H2087; first compound 4 µM): 0.437
relative viability (NCI-H1666; first compound 0.04 µM): 0.57
relative viability (NCI-H1666; first compound 0.1265 µM): 0.553
relative viability (NCI-H1666; first compound 0.4 µM): 0.58
relative viability (NCI-H1666; first compound 4 µM): 0.554
relative viability (NCI-H838; first compound 0.04 µM): 0.527
relative viability (NCI-H838; first compound 0.1265 µM): 0.54
relative viability (NCI-H838; first compound 0.4 µM): 0.497
relative viability (NCI-H838; first compound 4 µM): 0.374
relative viability (EMC-BAC-2; first compound 0.04 µM): 0.56
relative viability (EMC-BAC-2; first compound 0.1265 µM): 0.566
relative viability (EMC-BAC-2; first compound 0.4 µM): 0.495
relative viability (EMC-BAC-2; first compound 4 µM): 0.513
relative viability (NCI-H1993; first compound 0.04 µM): 0.532
relative viability (NCI-H1993; first compound 0.1265 µM): 0.497
relative viability (NCI-H1993; first compound 0.4 µM): 0.481
relative viability (NCI-H1993; first compound 4 µM): 0.498
relative viability (HARA; first compound 0.1265 µM): 0.357
relative viability (HARA; first compound 0.4 µM): 0.436
relative viability (HARA; first compound 4 µM): 0.467
relative viability (NCI-H647; first compound 0.04 µM): 0.472
relative viability (NCI-H647; first compound 0.1265 µM): 0.456
relative viability (NCI-H647; first compound 0.4 µM): 0.606
relative viability (NCI-H647; first compound 4 µM): 0.504
relative viability (NCI-H3122; first compound 0.04 µM): 0.409
relative viability (NCI-H3122; first compound 0.1265 µM): 0.387
relative viability (NCI-H3122; first compound 0.4 µM): 0.365
relative viability (NCI-H3122; first compound 4 µM): 0.301
relative viability (NCI-H2009; first compound 0.04 µM): 0.525
relative viability (NCI-H2009; first compound 0.1265 µM): 0.494
relative viability (NCI-H2009; first compound 0.4 µM): 0.453
relative viability (NCI-H2009; first compound 4 µM): 0.384
relative viability (NCI-H727; first compound 0.04 µM): 0.626
relative viability (NCI-H727; first compound 0.1265 µM): 0.663
relative viability (NCI-H727; first compound 0.4 µM): 0.599
relative viability (NCI-H727; first compound 4 µM): 0.544
relative viability (LCLC-103H; first compound 0.04 µM): 0.325
relative viability (LCLC-103H; first compound 0.1265 µM): 0.299
relative viability (LCLC-103H; first compound 0.4 µM): 0.302
relative viability (LCLC-103H; first compound 4 µM): 0.331
relative viability (HCC-44; first compound 0.04 µM): 0.176
relative viability (HCC-44; first compound 0.1265 µM): 0.233
relative viability (HCC-44; first compound 0.4 µM): 0.161
relative viability (HCC-44; first compound 4 µM): 0.114
relative viability (LOU-NH91; first compound 0.04 µM): 0.792
relative viability (LOU-NH91; first compound 0.1265 µM): 0.691
relative viability (LOU-NH91; first compound 0.4 µM): 0.696
relative viability (LOU-NH91; first compound 4 µM): 0.667
relative viability (NCI-H596; first compound 0.04 µM): 0.792
relative viability (NCI-H596; first compound 0.1265 µM): 0.658
relative viability (NCI-H596; first compound 0.4 µM): 0.635
relative viability (NCI-H596; first compound 4 µM): 0.757
relative viability (NCI-H23; first compound 0.04 µM): 0.719
relative viability (NCI-H23; first compound 0.1265 µM): 0.762
relative viability (NCI-H23; first compound 0.4 µM): 0.803
relative viability (NCI-H23; first compound 4 µM): 0.733
relative viability (NCI-H2023; first compound 0.04 µM): 0.458
relative viability (NCI-H2023; first compound 0.1265 µM): 0.432
relative viability (NCI-H2023; first compound 0.4 µM): 0.385
relative viability (NCI-H2023; first compound 4 µM): 0.344
relative viability (BEN; first compound 0.04 µM): 0.254
relative viability (BEN; first compound 0.1265 µM): 0.261
relative viability (BEN; first compound 0.4 µM): 0.294
relative viability (BEN; first compound 4 µM): 0.264
relative viability (NCI-H2126; first compound 0.04 µM): 0.573
relative viability (NCI-H2126; first compound 0.1265 µM): 0.528
relative viability (NCI-H2126; first compound 0.4 µM): 0.531
relative viability (NCI-H2126; first compound 4 µM): 0.454
relative viability (201T; first compound 0.04 µM): 0.439
relative viability (201T; first compound 0.1265 µM): 0.423
relative viability (201T; first compound 0.4 µM): 0.477
relative viability (201T; first compound 4 µM): 0.517
relative viability (NCI-H650; first compound 0.04 µM): 0.417
relative viability (NCI-H650; first compound 0.1265 µM): 0.436
relative viability (NCI-H650; first compound 0.4 µM): 0.436
relative viability (NCI-H650; first compound 4 µM): 0.33
relative viability (NCI-H441; first compound 0.04 µM): 0.913
relative viability (NCI-H441; first compound 0.1265 µM): 0.897
relative viability (NCI-H441; first compound 0.4 µM): 0.682
relative viability (NCI-H441; first compound 4 µM): 0.722
relative viability (NCI-H522; first compound 0.04 µM): 0.72
relative viability (NCI-H522; first compound 0.1265 µM): 0.718
relative viability (NCI-H522; first compound 0.4 µM): 0.635
relative viability (NCI-H522; first compound 4 µM): 0.608

CC(C)Oc1cc(Nc2nc(N[C@@H](C)c3ccc(F)cn3)ncc2Cl)n[nH]1 [AZ23] + Nc1ncn([C@H]2C[C@H](O)[C@@H](CO)O2)c(=O)n1 [Decitabine] (partner 2 µM)
relative viability (NCI-H1395; first compound 0.03162 µM): 0.713
relative viability (NCI-H1395; first compound 0.3162 µM): 0.704
relative viability (NCI-H2347; first compound 0.01 µM): 0.652
relative viability (NCI-H2347; first compound 0.03162 µM): 0.571
relative viability (NCI-H2347; first compound 0.3162 µM): 0.625
relative viability (NCI-H2087; first compound 0.01 µM): 0.303
relative viability (NCI-H2087; first compound 0.03162 µM): 0.265
relative viability (NCI-H2087; first compound 0.3162 µM): 0.237
relative viability (NCI-H1666; first compound 0.01 µM): 0.711
relative viability (NCI-H1666; first compound 0.03162 µM): 0.755
relative viability (NCI-H1666; first compound 0.3162 µM): 0.672
relative viability (NCI-H838; first compound 0.01 µM): 0.487
relative viability (NCI-H838; first compound 0.03162 µM): 0.506
relative viability (NCI-H838; first compound 0.3162 µM): 0.44
relative viability (EMC-BAC-2; first compound 0.01 µM): 0.966
relative viability (EMC-BAC-2; first compound 0.03162 µM): 0.998
relative viability (EMC-BAC-2; first compound 0.3162 µM): 0.949
relative viability (NCI-H1993; first compound 0.01 µM): 0.514
relative viability (NCI-H1993; first compound 0.03162 µM): 0.626
relative viability (NCI-H1993; first compound 0.3162 µM): 0.513
relative viability (HARA; first compound 0.01 µM): 0.621
relative viability (HARA; first compound 0.03162 µM): 0.581
relative viability (HARA; first compound 0.3162 µM): 0.504
relative viability (NCI-H647; first compound 0.01 µM): 0.364
relative viability (NCI-H647; first compound 0.03162 µM): 0.415
relative viability (NCI-H647; first compound 0.3162 µM): 0.41
relative viability (NCI-H3122; first compound 0.01 µM): 0.411
relative viability (NCI-H3122; first compound 0.03162 µM): 0.455
relative viability (NCI-H3122; first compound 0.3162 µM): 0.469
relative viability (NCI-H2009; first compound 0.01 µM): 0.406
relative viability (NCI-H2009; first compound 0.03162 µM): 0.356
relative viability (NCI-H2009; first compound 0.3162 µM): 0.396
relative viability (NCI-H727; first compound 0.01 µM): 0.956
relative viability (NCI-H727; first compound 0.03162 µM): 0.945
relative viability (NCI-H727; first compound 0.3162 µM): 0.822
relative viability (LCLC-103H; first compound 0.01 µM): 0.765
relative viability (LCLC-103H; first compound 0.03162 µM): 0.691
relative viability (LCLC-103H; first compound 0.3162 µM): 0.743
relative viability (HCC-44; first compound 0.01 µM): 1.03
relative viability (HCC-44; first compound 0.03162 µM): 0.973
relative viability (HCC-44; first compound 0.3162 µM): 0.979
relative viability (LOU-NH91; first compound 0.01 µM): 0.817
relative viability (LOU-NH91; first compound 0.03162 µM): 0.888
relative viability (LOU-NH91; first compound 0.3162 µM): 0.818
relative viability (NCI-H596; first compound 0.01 µM): 1.17
relative viability (NCI-H596; first compound 0.03162 µM): 1.07
relative viability (NCI-H596; first compound 0.3162 µM): 0.955
relative viability (NCI-H23; first compound 0.03162 µM): 0.307
relative viability (NCI-H23; first compound 0.3162 µM): 0.274
relative viability (NCI-H2023; first compound 0.03162 µM): 0.259
relative viability (NCI-H2023; first compound 0.3162 µM): 0.239
relative viability (BEN; first compound 0.01 µM): 0.736
relative viability (BEN; first compound 0.03162 µM): 0.829
relative viability (BEN; first compound 0.3162 µM): 0.667
relative viability (NCI-H2126; first compound 0.01 µM): 0.612
relative viability (NCI-H2126; first compound 0.03162 µM): 0.615
relative viability (NCI-H2126; first compound 0.3162 µM): 0.558
relative viability (201T; first compound 0.01 µM): 0.91
relative viability (201T; first compound 0.03162 µM): 0.875
relative viability (201T; first compound 0.3162 µM): 0.86
relative viability (NCI-H650; first compound 0.01 µM): 0.355
relative viability (NCI-H650; first compound 0.03162 µM): 0.329
relative viability (NCI-H650; first compound 0.3162 µM): 0.336
relative viability (NCI-H441; first compound 0.01 µM): 0.294
relative viability (NCI-H441; first compound 0.03162 µM): 0.248
relative viability (NCI-H441; first compound 0.3162 µM): 0.239
relative viability (NCI-H522; first compound 0.01 µM): 0.701
relative viability (NCI-H522; first compound 0.03162 µM): 0.736
relative viability (NCI-H522; first compound 0.3162 µM): 0.679
